According to patent publication US20080064679A1, “Water Soluble Cannabinoids” (priority 2004, published 2008):
Like-named read-outs stand apart in the source and are kept apart here.

Tests used:
[1] = Description: By “water-soluble” we mean that 1 mg of material in 1 ml of water gives a clear solution and is water miscible.
(§1) For the in vivo studies, the drugs were dissolved in either saline or emulphor:ethanol:saline (E:E:S) as indicated.

[2] = biological target: T1, human CB1 receptor (Homo sapiens, UniProt P21554); experiment: CB1 receptor binding, [3H]CP55,940 displacement in membranes of transfected cells; details: CB1 Ki
T1 construct: expressed in transfected cells; b94 says CHO for CB1
Description: as §1
(§2) cLogP calculations. Absolute solubility determinations were not performed. Rather, cLogP calculations were performed using the CS ChemDraw Ultra software (Cambridge Soft Corporation, Cambridge, Mass.). Receptor Binding. HEK-293 cells stably expressing the human CB1 receptor were cultured in DMEM with 10% FBS and Chinese Hamster Ovary (CHO) cells stably expressing the human CB2 receptor were cultured in DMEM with 10% FCS. Cells were harvested by replacement of the media with cold phosphate-buffered saline containing 1 mM EDTA followed by centrifugation at 1000×g for 5 min at 4° C. The pellet was resuspended in 50 mM Tris-HCl containing 320 mM sucrose, 2 mM EDTA and 5 mM MgCl2 (pH 7.4) (centrifugation buffer), then centrifuged at 1000×g for 10 min at 4° C., and the resulting supernatant was saved. This process was repeated twice. The supernatant fractions were combined and centrifuged at 40,000×g for 30 min at 4° C. The resulting P2 pellet was resuspended in assay buffer (50 mM Tris-HCl (pH 7.4), 3 mM MgCl2, 0.2 mM EGTA, and 100 mM NaCl) and protein was determined by the method of Bradford ENRfu(Bradford 1976). Membranes were stored at −80° C. until use. […] The assay was incubated at 30° C. for 1 hr and terminated by addition of ice cold 50 mM Tris-HCl plus BSA (1 mg/ml) (pH 7.4) followed by filtration under vacuum through Whatman GF/B glass fiber filters with 3 washes with cold Tris buffer. Bound radioactivity was determined by liquid scintillation spectrophotometry at 50% efficiency after extraction by shaking samples for 30-60 min with Budget-Solve scintillation fluid. Data are reported as the mean±SEM of three experiments, each performed in triplicate. Ki values were calculated from displacement data using EBDA (Equilibrium Binding Data Analysis; BIOSOFT, Milltown, N.J.). [^35S]GTPγS Binding Assays. Concentration-effect curves were generated by incubating membranes (10 μg prepared from CB1 expressing cells as described above) in assay buffer containing BSA (1 mg/ml) with various concentrations of test compounds in the presence of 20 μM GDP and 0.1 nM [^35S]GTPγS in a 1 ml total volume. […] Basal binding was assessed in the absence of agonist, and nonspecific binding was measured in the presence of 10 μM GTPγS. The reaction was incubated for 90 min at 30° C. and terminated by filtration under vacuum through Whatman GF/B glass fiber filters with 3 washes with cold (4° C.) Tris buffer (50 mM Tris-HCl, pH 7.4). Bound radioactivity was determined by liquid scintillation spectrophotometry at 95% efficiency after extraction overnight in ScintiSafe Econo 1 scintillation fluid. Data are reported as mean±SEM of three experiments, each performed in triplicate. Nonlinear regression analysis was conducted by iterative fitting using JMP (SAS for Macintosh). Net-stimulated [^35S]GTPγS binding is defined as [^35S]GTPγS binding in the presence of drug minus basal and percent stimulation is expressed as (net stimulated [^35S]GTPγS binding/basal)×100%. Behavioral Evaluations. All animals were allowed to acclimate to the observation room overnight. Behavioral effects were assessed in the tetrad model in order to measure potency in producing antinociception, catalepsy, hypothermia, and hypomobility. The baselines for tail-flick latency (2-4 seconds) and rectal temperature were determined prior to i.v. injections. Baseline rectal temperatures were measured using a telethermometer and a thermometer probe inserted to 25 mm (Yellow Springs Instrument Co., Yellow Springs, Ohio). The mice were then given either an i.v. i.c.v. injection of the analog. The mice were placed in individual photocell activity chambers 5 min later. Spontaneous activity was monitored for 10 min in a Digiscan Animal Activity Monitor (Omnitech Electronice, Inc., Columbus, Ohio) as measured by the number of interruptions of 16 photocell beams per chamber.

[3] = biological target: T2, human CB2 receptor (Homo sapiens, UniProt P34972); experiment: CB2 receptor binding, [3H]CP55,940 displacement in membranes of transfected cells; details: Table 1B, mean±SEM
T2 construct: expressed in transfected cells; b94 says HEK for CB2
Description: as §2, with “chamber. The total number of beam interruptions during the 10-min period was determined and presented as total counts.” for “chamber.”

[4] = biological target: T1, human CB1 receptor; experiment: [35S]GTPγS binding assay in membranes of CB1 expressing cells; format: biochemical
Description: as §1, §2

[5] = test system: mice; experiment: Spontaneous activity (S.A.), mouse tetrad; format: in vivo; details: Mus musculus, iv, vehicle E:E:S (1:1:18), read-out: S.A. ED50 (reducing spontaneous activity)
[6] = test system: mice; experiment: Rectal temperature (R.T.), mouse tetrad; format: in vivo; details: Mus musculus, iv, vehicle E:E:S (1:1:18), read-out: R.T. ED50 (lowering rectal temperature)
[7] = test system: mice; experiment: Tail-flick antinociception (T.F.), mouse tetrad; format: in vivo; details: Mus musculus, iv, mice, i.v., vehicle E:E:S (1:1:18); read-out: T.F. ED50 (antinociception in the tail-flick procedure)
[8] = test system: mice; experiment: Tetrad model, all four behavioral measures together (time course, oral and i.c.v. administration); format: in vivo, mouse; details: i.c.v.; analogs dissolved in water, THC in emulphor:ethanol:saline; Table 5 not given
[9] = 1 mg of analog in 1 ml of water, visual observation

T1 sequence (P21554 whole entry): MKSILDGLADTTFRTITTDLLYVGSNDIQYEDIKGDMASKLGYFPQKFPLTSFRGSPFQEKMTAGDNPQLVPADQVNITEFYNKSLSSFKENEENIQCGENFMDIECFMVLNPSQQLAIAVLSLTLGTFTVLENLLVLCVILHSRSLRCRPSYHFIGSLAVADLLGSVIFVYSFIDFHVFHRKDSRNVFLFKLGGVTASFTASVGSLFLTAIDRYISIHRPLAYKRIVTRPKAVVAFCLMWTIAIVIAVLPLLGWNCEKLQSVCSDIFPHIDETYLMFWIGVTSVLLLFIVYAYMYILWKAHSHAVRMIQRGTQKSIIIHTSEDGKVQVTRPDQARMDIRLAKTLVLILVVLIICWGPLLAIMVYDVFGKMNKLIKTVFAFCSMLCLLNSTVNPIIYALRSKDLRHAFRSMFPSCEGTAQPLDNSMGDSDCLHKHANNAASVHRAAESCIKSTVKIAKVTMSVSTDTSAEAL
T2 sequence (P34972 whole entry): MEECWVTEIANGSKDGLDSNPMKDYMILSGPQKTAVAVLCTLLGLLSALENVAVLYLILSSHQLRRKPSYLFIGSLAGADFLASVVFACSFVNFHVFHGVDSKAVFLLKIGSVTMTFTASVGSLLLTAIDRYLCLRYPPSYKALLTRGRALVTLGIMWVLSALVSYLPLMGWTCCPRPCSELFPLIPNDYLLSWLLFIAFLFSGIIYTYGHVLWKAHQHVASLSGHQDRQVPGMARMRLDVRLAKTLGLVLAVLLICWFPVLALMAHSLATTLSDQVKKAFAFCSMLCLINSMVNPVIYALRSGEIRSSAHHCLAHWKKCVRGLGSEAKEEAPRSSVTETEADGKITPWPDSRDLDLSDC

Q: Which results are given for `CC1=CC[C@@H]2[C@@H](C1)c1c(O)cc(C(C)(C)CCCCNC(=O)Cc3nc(-c4ccccc4)oc3C)cc1OC2(C)C` [O-2590, 5-Methyl-2-phenyl-oxazol-4-yl-acetamide]?
A: Solubility (water-soluble) [1, 9]: No; Ki ([2]; Table 1B, mean±SEM): 890 ± 161 nM; Ki ([3]; CB2 Ki): 169 ± 39.1 nM

Q: Which “Solubility (water-soluble)” value [1] does the source give for `CC1=CC[C@@H]2[C@@H](C1)c1c(O)cc(C(C)(C)CCCCNC(=O)N3CCOCC3)cc1OC2(C)C` [O-2619, Morpholino-1-carboxylic acid amide] here?
A: No

Q: What about the Ki [2] of the same compound?
A: 18.6 ± 3.94 nM

Q: And the EC50 ([4]; CB1 EC50, [35S]GTPγS binding, mean±SEM)?
A: 86 ± 3.1 nM

Q: And the Emax ([4]; maximal GTPγS binding as percentage of stimulation produced by CP 55,940, read-out: CB1 % CP Stim)?
A: 116 ± 7.94%

Q: And the Ki ([3]; read-out: CB2 Ki)?
A: 2.26 ± 0.38 nM

Q: For `CC1=CC[C@@H]2[C@@H](C1)c1c(O)cc(C(C)(C)CCCCN(C(=O)N3CCOCC3)C(=O)N3CCOCC3)cc1OC2(C)C` [O-2620, Di(morpholino-1-carboxylic acid) amide], which Ki [2] is on record?
A: 3020 ± 579 nM

Q: And the Ki ([3]; read-out: CB2 Ki)?
A: 772 ± 60.5 nM

Q: With `CCCCCc1cc(O)c2c(c1)OC(C)(C)C1CCC(C)=CC21` (stereo not drawn) [Δ^9-THC, Δ^9-tetrahydrocannabinol, reference compound] as the compound, how does the ED50 [5] read?
A: 2.23 µmol/kg

Q: And the ED50 [6]?
A: 2.23 µmol/kg

Q: What about the “Solubility (water-soluble)” value [1, 9] of the same compound?
A: No

Q: What about the ED50 [7] of the same compound?
A: 2.77 µmol/kg

Q: What about the “Activity in the behavioral tests after i.c.v. injection” value [8] of the same compound?
A: active with similar potencies in all tests, with the exception of weak antinociceptive activity
